{
  "source": "patent US7939518B2",
  "about": "“Method of treating post-surgical acute pain” (Aaipharma Inc., priority 2008, dated 2011)",
  "origin": "cited, not measured here",
  "test_system": "cyclo-oxygenase",
  "data": [
    {"compound": "O=C(O)Cc1ccccc1Nc1c(Cl)cccc1Cl", "note": "[Diclofenac]", "values": [
      {"measurement": "Concentrations at which cyclo-oxygenase is inhibited", "value": "micromolar concentrations"}
    ]}
  ]
}
